Paper PMC11279916, “Application of ^99mTc-Labeled WL12 Peptides as a Tumor PD-L1-Targeted SPECT Imaging Agent: Kit Formulation, Preclinical Evaluation, and Study on the Influence of Coligands” (Pharmaceuticals, 2024)

Target: PD-L1 protein (Homo sapiens, UniProt Q9NZQ7)
Assay: TR-FRET in vitro affinity assay (IC50)
Format: binding
Settings: PD-L1-biotin / PD-1-Eu
Method: Fig. S3. HPLC analysis of HYNIC-WL12 (tR = 14.29 min, purity 95.84%).
In Vitro Affinity Assay: Determination of IC50
The affinity of WL12 and HYNIC-WL12 for the PD-L1 protein was determined via a time-resolved fluorescence energy transfer (TR-FRET) assay. In brief, 200 nL of WL12 or HYNIC-WL12 solutions at different concentrations (from 0.5-10000 nM) in 10% ethanol were transferred to 384-well plates on an Echo550 […]
instrument. Then, 5 µL of PD-L1-biotin solution was added, and the plates were centrifuged at 1000 rpm for 30 s and incubated at room temperature. After incubation for 15 min, the mixed solution containing PD-1-Eu and dye-labeled acceptor was added. Then, the plates were centrifuged at 1000 rpm for 30 s and incubated for 90 min at room temperature. Finally, the 665 nm-to-615 nm ratios were read on a microplate reader, and the IC50 values of the two peptides were calculated. […]
For RP-HPLC analysis of [99mTc]Tc-HYNIC-WL12-tricine/M, phase A was water containing 0.1% trifluoroacetic acid (TFA), and phase B was acetonitrile containing 0.1% trifluoroacetic acid (TFA). […] Additionally, the radiochemical purity of [99mTc]Tc-HYNIC-WL12-tricine/M was determined by instant thin layer chromatography on silica gel (iTLC-SG, Agilent, China) using acid-citrate-dextrose solution (ACD solution, pH = 4.5-5.5) as the mobile phase solvent. […]
Effect of HYNIC-WL12 Quantities on the Radiochemical Yield […]

Sequence of PD-L1 protein (Q9NZQ7 19-238 limits assumed): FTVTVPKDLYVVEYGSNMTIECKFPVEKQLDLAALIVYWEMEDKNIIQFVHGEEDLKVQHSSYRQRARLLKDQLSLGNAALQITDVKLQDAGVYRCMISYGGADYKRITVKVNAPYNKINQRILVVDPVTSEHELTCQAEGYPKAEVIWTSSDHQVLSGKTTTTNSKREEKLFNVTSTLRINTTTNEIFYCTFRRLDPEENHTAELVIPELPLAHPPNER

IC50: 170 nM
Compound: CCCC[C@H]1C(=O)N(C)[C@@H](CCCC)C(=O)N[C@@H](CCCNC(=O)c2ccc(NN)nc2)C(=O)N[C@H](C(=O)NCC(N)=O)CSCC(=O)N[C@@H](Cc2ccc(O)cc2)C(=O)N(C)[C@@H](C)C(=O)N[C@@H](CC(N)=O)C(=O)N2CCC[C@H]2C(=O)N[C@@H](Cc2c[nH]cn2)C(=O)N[C@@H](CC(C)C)C(=O)N2C[C@H](O)C[C@H]2C(=O)N[C@@H](Cc2c[nH]c3ccccc23)C(=O)N[C@@H](CO)C(=O)N[C@@H](Cc2cn(C)c3ccccc23)C(=O)N1C [HYNIC-WL12]
